In article PMC4350077, “Mechanism of Action of Thalassospiramides, A New Class of Calpain Inhibitors” (Scientific Reports, 2015):
Where two headings read alike, the source gives them in different places.

Biological target: T1, human calpain 1 protease (HCAN1) (Homo sapiens, UniProt P07384)
T1 construct: gene CAPN1; with Calpain small subunit 1
T1 sequence (P07384 2-714): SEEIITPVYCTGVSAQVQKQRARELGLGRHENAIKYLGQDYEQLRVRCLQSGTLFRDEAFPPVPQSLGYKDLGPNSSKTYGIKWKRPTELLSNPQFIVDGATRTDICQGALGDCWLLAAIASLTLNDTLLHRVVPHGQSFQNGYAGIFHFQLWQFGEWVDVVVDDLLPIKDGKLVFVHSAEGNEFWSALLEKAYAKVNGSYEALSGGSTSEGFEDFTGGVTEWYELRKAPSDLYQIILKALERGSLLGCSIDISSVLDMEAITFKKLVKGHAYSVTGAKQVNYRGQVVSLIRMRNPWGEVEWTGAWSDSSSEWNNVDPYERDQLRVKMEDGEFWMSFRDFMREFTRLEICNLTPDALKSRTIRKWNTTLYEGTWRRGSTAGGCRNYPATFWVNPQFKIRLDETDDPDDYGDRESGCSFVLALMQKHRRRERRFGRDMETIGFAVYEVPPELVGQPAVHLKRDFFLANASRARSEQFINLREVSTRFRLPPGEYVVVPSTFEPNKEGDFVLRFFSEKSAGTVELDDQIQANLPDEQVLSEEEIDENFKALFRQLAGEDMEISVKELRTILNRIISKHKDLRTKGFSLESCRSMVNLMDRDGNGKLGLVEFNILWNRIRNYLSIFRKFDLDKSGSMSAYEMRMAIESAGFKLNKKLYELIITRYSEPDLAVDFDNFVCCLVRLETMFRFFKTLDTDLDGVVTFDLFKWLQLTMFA
T1 sequence (P04632 1-268 partner): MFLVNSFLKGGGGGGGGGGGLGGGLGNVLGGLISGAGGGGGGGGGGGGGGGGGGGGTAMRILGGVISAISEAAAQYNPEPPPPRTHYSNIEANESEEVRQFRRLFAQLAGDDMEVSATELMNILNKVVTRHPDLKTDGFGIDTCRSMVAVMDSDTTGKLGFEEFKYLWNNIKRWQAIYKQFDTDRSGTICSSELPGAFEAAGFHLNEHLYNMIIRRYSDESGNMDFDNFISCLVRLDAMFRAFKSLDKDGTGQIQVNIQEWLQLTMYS
Test: fluorescence calpain activity assay kit (Ac-LLY-AFC)
Type: biochemical

IC50 [nM] | IC50 (Ac-LLY-AFC substrate, 37 °C, 1 h, covalent (Michael addition to Cys115)) [nM] | Compound
> 5000 |  | CCCCCCCCCC(=O)N[C@@H](CO)C(=O)N[C@H](C(=O)N[C@@H](CO)[C@@H](O)CC(=O)N[C@H](C(=O)N[C@@H]1CCC(=O)N[C@@H](C(C)C)C(=O)N(C)[C@@H](Cc2ccc(O)cc2)C(=O)OC1)C(C)C)C(C)C [compound 3, 3]
 | 3.4 ± 1.2 | Thalassospiramide C [compound 4]
